Measurements taken from patent US8409581B2, “Compounds for treating amyloidoses” (Affiris AG, priority 2008, dated 2013).
Ends that are not written are not given here.

Experiments:
[1] = test system: monoclonal antibody MV-002; experiment: In vitro binding assay (ELISA) of mimotopes to parental antibody; design: species or system mice; conditions: peptide coupled to BSA bound to ELISA plates (1 μM); parental antibody MV-002
Experimental: 1. In Vitro Binding Assay (ELISA)
Peptides derived from Phage Display as well as variants thereof were coupled to BSA and bound to ELISA plates (1 μM; as indicated in the respective figures) and subsequently incubated with the monoclonal antibody that was used for the screening procedure to analyse binding capacity of identified peptides.

[2] = test system: p1454 (unrelated sequence); experiment: Mimotope vaccination of mice, serum titer ELISA against irrelevant peptide; assay type: in vivo, C57/B16 mice; conditions: 30 μg peptide-KLH, alum, s.c., FIG. 4
Experimental: (§1) Inhibiting as well as non-inhibiting peptides were coupled to KLH and injected into mice (wildtype C57/B16 mice; subcutaneous injection into the flank) together with an appropriate adjuvant (aluminium hydroxide). Animals were vaccinated 3-6 times in biweekly intervals and sera were taken biweekly as well. Titers to injected peptides, as well as to an irrelevant peptide were determined with every serum. Furthermore, titers against the recombinant human Aβ protein, and against original peptides were determined respectively. In general sera were analysed by reaction against peptides coupled to Bovine Serum Albumin (BSA) and recombinant full length proteins which were immobilised on ELISA plates. Titers were determined using anti mouse IgG specific antibodies. For detailed results see FIGS. 4, 5 and 6 respectively.
(§2) Female C57/b16 mice, 5-6 mice per group, were subcutaneously immunized with 30 μg peptide coupled to KLH. Control groups were administered original epitope-KLH conjugates respectively. As adjuvant alum was used (always 1 mg per mouse). […] The in vitro ELISA assay to determine the antibody titer was performed with sera of single mice after each vaccination in a two week interval (see FIGS. 6 and 7 respectively). Titers were calculated as OD max/2 in all figures shown. The wells of the ELISA plate were coated with mimotope-BSA conjugate and an irrelevant peptide-BSA conjugate (negative control). The positive control was performed by reaction of the parental antibody with the respective mimotope-BSA conjugate. The detection was performed with anti-mouse IgG. Additionally, recombinant proteins were immobilised on ELISA plates and sera reacted accordingly. FIGS. 4, 5 and 6 show representative examples for assays used to characterise mimotopes in vivo.

original epitope p4377 = experiment: Mimotope vaccination of mice, serum titer ELISA against original epitope; assay type: in vivo, C57/B16 mice; conditions: 30 μg peptide-KLH, alum, s.c., FIG. 5
Experimental: as §1, §2

injected peptide = experiment: Mimotope vaccination of mice, serum titer ELISA against injected peptide; assay type: in vivo, C57/B16 mice; conditions: 30 μg peptide-KLH, alum, s.c., FIG. 4
Experimental: as §1, §2

[3] = test system: monoclonal antibody MV-002 binding to the original epitope; experiment: In vitro inhibition assay (ELISA); design: species or system mice; conditions: OD at 5 ug peptide compared to original peptide; MV-002
Experimental: 2. In Vitro Inhibition Assay (ELISA)
Different amounts of peptides (concentrations ranging from 5 μg to 0.03 μg; serial dilutions), derived from Phage Display were incubated with the monoclonal antibody that was used for the screening procedure. Peptides diminishing subsequent binding of the antibody to the original epitope coated on ELISA plates were considered as inhibiting in this assay.

Row | Substance | Binding Capacity (binding code; OD halfmax 1:X, dilution factor of the parental AB) [1] | other results
1 | AGEIYFERC [p4806, MV-002 mimotope peptide] | 1 (weak binding :<40000) | 
2 | AIPLFVMC [p4682, MV-002 mimotope peptide] | 1 (weak binding :<40000) | 
3 | Ac-GEIYFERC [p4804, MV-002 mimotope peptide, N-terminally acetylated] | 2 (medium binding :40000-320000) | 
4 | CGEIYFER [p4807, MV-002 mimotope peptide] | 1 (weak binding :<40000) | 
5 | EVHHQKLVFC [p4377, reference compound] |  | unspecific immune response against unrelated sequence (p1454) [2]: failed to induce a relevant unspecific immune response; immune response against the original epitope p4377 (original epitope p4377): mounted detectable immune responses; immune response against injected peptide (injected peptide): elicited immune responses
6 | GDLKFPLC [p4683, MV-002 mimotope peptide] | 3 (strong binding :>320000) | 
7 | GEIKFDHC [p4698, MV-002 mimotope peptide] | 3 (strong binding :>320000) | Inhibition Capacity (competition code) [3]: 2 (strong inhibition (as original epitope; OD of peptide below 2, 3 times of original peptide))
8 | GEILFGMC [p4689, MV-002 mimotope peptide] | 3 (strong binding :>320000) | Inhibition Capacity (competition code) [3]: 1 (Weaker than original epitope (OD of peptide below 4, 6 times of original peptide))
9 | GEIQFGAC [p4699, MV-002 mimotope peptide] | 3 (strong binding :>320000) | Inhibition Capacity (competition code) [3]: 1 (Weaker than original epitope (OD of peptide below 4, 6 times of original peptide))
10 | GEIRFALC [p4678, MV-002 mimotope peptide] | 3 (strong binding :>320000) | 
11 | GEIRFELC [p4796, MV-002 mimotope peptide] | 2 (medium binding :40000-320000) | 
12 | GEIRFGSC [p4696, MV-002 mimotope peptide] | 3 (strong binding :>320000) | 
13 | GELFFEKC [p4795, MV-002 mimotope peptide] | 2 (medium binding :40000-320000) | 
14 | GELFFPKC [p4685, MV-002 mimotope peptide] | 3 (strong binding :>320000) | 
15 | GELQFPPC [p4672, MV-002 mimotope peptide] | 3 (strong binding :>320000) | 
16 | GELWFPC [p4673, MV-002 mimotope peptide] | 3 (strong binding :>320000) | Inhibition Capacity (competition code) [3]: 1 (Weaker than original epitope (OD of peptide below 4, 6 times of original peptide))
17 | GELYFRAC [p4677, MV-002 mimotope peptide] | 3 (strong binding :>320000) | 
18 | GEMQFFIC [p4676, MV-002 mimotope peptide] | 3 (strong binding :>320000) | 
19 | GEMWFALC [p4671, MV-002 mimotope peptide] | 3 (strong binding :>320000) | 
20 | GMIVFPHC [p4679, MV-002 mimotope peptide] | 3 (strong binding :>320000) | 
21 | GQIIFQSC [p4668, MV-002 mimotope peptide] | 2 (medium binding :40000-320000) | 
22 | GQIKFAQC [p4694, MV-002 mimotope peptide] | 3 (strong binding :>320000) | 

Row | Substance | Binding Capacity (binding code; OD halfmax 1:X, dilution factor of the parental AB) [1] | other results
23 | GQILFPVC [p4684, MV-002 mimotope peptide] | 3 (strong binding :>320000) | 
24 | GQIMFPRC [p4686, MV-002 mimotope peptide] | 3 (strong binding :>320000) | 
25 | GQIQFPLC [p4697, MV-002 mimotope peptide] | 3 (strong binding :>320000) | 
26 | GQIRFDHC [p4669, MV-002 mimotope peptide] | 3 (strong binding :>320000) | 
27 | GQIWFISC [p4666, MV-002 mimotope peptide] | 1 (weak binding :<40000) | 
28 | GQLKFPFC [p4690, MV-002 mimotope peptide] | 3 (strong binding :>320000) | 
29 | GSLFFWPC [p4688, MV-002 mimotope peptide] | 2 (medium binding :40000-320000) | 
30 | GTIFFRDC [p4692, MV-002 mimotope peptide] | 1 (weak binding :<40000) | 
31 | GTLIFHHC [p4695, MV-002 mimotope peptide] | 2 (medium binding :40000-320000) | 
32 | HMRMYFEC [p4687, MV-002 mimotope peptide] | 3 (strong binding :>320000) | 
33 | HQKMIFC [p4794, MV-002 mimotope peptide] | 2 (medium binding :40000-320000) | Inhibition Capacity (competition code) [3]: 1 (Weaker than original epitope (OD of peptide below 4, 6 times of original peptide))
34 | KLPLFVMC [p4691, MV-002 mimotope peptide] | 1 (weak binding :<40000) | 
35 | NDAKIVFC [p4667, MV-002 mimotope peptide] | 3 (strong binding :>320000) | Inhibition Capacity (competition code) [3]: 1 (Weaker than original epitope (OD of peptide below 4, 6 times of original peptide))
36 | QLPLFVLC [p4700, MV-002 mimotope peptide] | 1 (weak binding :<40000) | 
37 | SGEIHFNC [p4415, MV-002 mimotope peptide] | 1 (weak binding :<40000) | 
38 | SGEIYFERC [p4805, MV-002 mimotope peptide] | 1 (weak binding :<40000) | 
39 | SGEYVFHC [p4404, MV-002 mimotope peptide] | 1 (weak binding :<40000) | 
40 | SGQIWFRC [p4414, MV-002 mimotope peptide] | 1 (weak binding :<40000) | 
41 | SGQLKFPC [p4413, MV-002 mimotope peptide] | 1 (weak binding :<40000) | 
42 | SHQRLWFC [p4674, MV-002 mimotope peptide] | 3 (strong binding :>320000) | Inhibition Capacity (competition code) [3]: 1 (Weaker than original epitope (OD of peptide below 4, 6 times of original peptide))
43 | THQRLWFC [p4693, MV-002 mimotope peptide] | 3 (strong binding :>320000) | 
